Reference: the NIST ThermoML archive (doi:10.1016/j.fluid.2005.08.018)
Where “and” joins values, the source holds several entries; their conditions need not be identical. Equal values may be shown once.

Assay: activity coefficient (dimensionless); of the first substance listed, at infinite dilution; xn = mol fraction of the nth substance listed
Details: Liquid, x1 = 0

CCCCO [butan-1-ol] + O
Details | activity coefficient
273.35 K, headspace analysis | 32.6
283.15 K, headspace analysis | 40.4
293.15 K, headspace analysis | 48.4
303.15 K, comparative tensimetry | 53.4
308.15 K, comparative tensimetry | 57.2
313.15 K, comparative tensimetry | 58.9
318.15 K, comparative tensimetry | 60.2
323.15 K, comparative tensimetry | 61.5
323.15 K, headspace analysis | 58.7 and 59.4
328.15 K, comparative tensimetry | 62.8
333.15 K, comparative tensimetry | 63.4
372.15 K, circulating still method | 56.1

CCO [ethanol] + O
Details | activity coefficient
273.35 K, headspace analysis | 2.54
283.15 K, headspace analysis | 3.13
303.15 K, comparative tensimetry | 4.14
308.15 K, comparative tensimetry | 4.43
313.15 K, comparative tensimetry | 4.66
318.15 K, comparative tensimetry | 4.85
323.15 K, comparative tensimetry | 5.03
328.15 K, comparative tensimetry | 5.2
333.15 K, comparative tensimetry | 5.3
358.15 K, circulating still method | 5.9
363.15 K, circulating still method | 6
368.15 K, circulating still method | 6.1
372.15 K, circulating still method | 6.2

CO [methanol] + O
Details | activity coefficient
273.35 K, headspace analysis | 1.23
283.15 K, headspace analysis | 1.4
293.15 K, headspace analysis | 1.55
303.15 K, comparative tensimetry | 1.71
308.15 K, comparative tensimetry | 1.8
313.15 K, comparative tensimetry | 1.88
318.15 K, comparative tensimetry | 1.95
323.15 K, comparative tensimetry | 2.02
328.15 K, comparative tensimetry | 2.09
333.15 K, comparative tensimetry | 2.16
358.15 K, circulation still method | 2.31
363.15 K, circulation still method | 2.38
368.15 K, circulation still method | 2.41
372.15 K, circulation still method | 2.4

CCCCCO [pentan-1-ol] + O
Details | activity coefficient
273.35 K, headspace analysis | 121
283.15 K, headspace analysis | 156
293.15 K, headspace analysis | 184
303.15 K, inert gas stripping | 203
313.15 K, inert gas stripping | 221
323.15 K, inert gas stripping | 230
333.15 K, Rayleigh distillation | 221
343.15 K, Rayleigh distillation | 206
353.15 K, circulating still method | 203
363.15 K, circulating still method | 181
371.15 K, circulating still method | 169

CCCO [propan-1-ol] + O
Details | activity coefficient
273.35 K, headspace analysis | 8.9
283.15 K, headspace analysis | 11.2
293.15 K, headspace analysis | 13.5
303.15 K, comparative tensimetry | 15.3
308.15 K, comparative tensimetry | 16.1
313.15 K, comparative tensimetry | 16.7
318.15 K, comparative tensimetry | 17.5
323.15 K, comparative tensimetry | 18.1
328.15 K, comparative tensimetry | 18.6
333.15 K, comparative tensimetry | 19
358.15 K, circulating still method | 20.1
363.15 K, circulating still method | 19.5
368.15 K, circulating still method | 18.7
372.15 K, circulating still method | 18.9
